Experimental data as given in patent US5602153A, “Method of using 1-arylheteroarylalkyl substituted-1H-1,2,4-triazole compounds for treatment of a giaucoma disorder” (G.D. Searle & Co., priority 1993, dated 1997).
Read-outs that look alike come from different tables or passages of the source.

Tests used:
angiotensin II receptor = details: cited from earlier work; for angiotensin II antagonist activity: binding experiments, functional assays and in vitro / in vivo tests
rabbit aortic rings = target: T1, rabbit aortic rings (Oryctolagus cuniculus, UniProt P34976); test: Assay B: In Vitro Vascular Smooth Muscle-Response for AII (antagonist activity in rabbit aortic rings); type: cell-based, rabbit (male New Zealand white); details: antagonist 10^-5 M for 5 min, AII challenge
T1 construct: The thoracic aorta was removed, cleaned of adherent fat and connective tissue; from tissue; host or cells: thoracic aorta rings, endothelium removed, male New Zealand white rabbit
T1 sequence (P34976 1-359): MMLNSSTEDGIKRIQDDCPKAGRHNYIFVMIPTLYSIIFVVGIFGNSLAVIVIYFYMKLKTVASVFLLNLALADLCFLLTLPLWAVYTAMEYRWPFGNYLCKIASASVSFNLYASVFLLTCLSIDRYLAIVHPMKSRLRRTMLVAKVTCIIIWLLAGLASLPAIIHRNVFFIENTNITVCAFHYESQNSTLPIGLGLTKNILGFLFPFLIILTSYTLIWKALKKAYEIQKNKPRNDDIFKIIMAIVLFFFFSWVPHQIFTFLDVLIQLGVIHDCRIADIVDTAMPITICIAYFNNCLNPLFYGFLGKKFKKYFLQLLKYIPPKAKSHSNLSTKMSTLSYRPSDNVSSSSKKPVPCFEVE
Protocol: Assay B: In Vitro Vascular Smooth Muscle-Response for AII The compounds of the invention were tested for antagonist activity in rabbit aortic rings. Male New Zealand white rabbits (2-2.5 kg) were sacrificed using an overdose of pentobarbital and exsanguinated via the carotid arteries. The thoracic aorta was removed, cleaned of adherent fat and connective tissue and then cut into 3-mm ring segments. The endothelium was removed from the rings by gently sliding a rolled-up piece of filter paper into the vessel lumen. The rings were then mounted in a water-jacketed tissue bath, maintained at 37° C., between moveable and fixed ends of a stainless steel wire with the moveable end attached to an FT03 Grass transducer coupled to a Model 7D Grass Polygraph for recording isometric force responses. The bath was filled with 20 ml of oxygenated (95% oxygen/5% carbon dioxide) Krebs solution of the following composition (mM): 130 NaCl, 15 NaHCO3, 15 KCl, 1.2 NaH2 PO4, 1.2 MgSO4, 2.5 CaCl2, and 11.4 glucose. The preparations were equilibrated for one hour before approximately one gram of passive tension was placed on the rings. Angiotensin II concentration-response curves were then recorded (3×10^-10 to 1×10^-5 M). Each concentration of AII was allowed to elicit its maximal contraction, and then AII was washed out repeatedly for 30 minutes before rechallenging with a higher concentration of AII. Aorta rings were exposed to the test antagonist at 10^-5 M for 5 minutes before challenging with AII. Adjacent segments of the same aorta ring were used for all concentration-response curves in the presence or absence of the test antagonist. The effectiveness of the test compound was expressed in terms of pA2 values and were calculated according to H.O. Schild [Br. J. Pharmacol. Chemother., 2, 189-206 (1947)]. The pA2 value is the concentration of the antagonist which increases the EC50 value for AII by a factor of two. Each test antagonist was evaluated in aorta rings from two rabbits.

[1] = target: smooth muscle angiotensin II receptor; test: Assay A: Angiotensin II Binding Activity (displacement of 125I-AII, rat uterine membrane preparation); details: rat uterine membranes, 25 °C, 60 min; read-out: IC50 (50% displacement of total specifically bound 125I-AII)
Protocol: Assay A: Anaiotensin II Binding Activity
Compounds of the invention were tested for ability to bind to the smooth muscle angiotensin II receptor using a rat uterine membrane preparation. Angiotensin II (AII) was purchased from Peninsula Labs. ^125 I-angiotensin II (specific activity of 2200 Ci/mmol) was purchased from Du Pont-New England Nuclear. Other chemicals were obtained from Sigma Chemical Co. This assay was carried out according to the method of Douglas et al [Endocrinology, 106, 120-124 (1980)]. Rat uterine membranes were prepared from fresh tissue. All procedures were carried out at 4° C. Uteri were stripped of fat and homogenized in phosphate-buffered saline at pH 7.4 containing 5 mM EDTA. The homogenate was centrifuged at 1500×g for 20 min., and the supernatant was recentrifuged at 100,000×g for 60 min. The pellet was resuspended in buffer consisting of 2 mM EDTA and 50 mM Tris-HCl (pH 7.5) to a final protein concentration of 4 mg/ml. Assay tubes were charged with 0.25 ml of a solution containing 5 mM MgCl2, 2 mM EDTA, 0.5% bovine serum albumin, 50 mM Tris-HCl, pH 7.5 and ^125 I-AII (approximately 10^5 cpm) in the absence or in the presence of unlabelled ligand. The reaction was initiated by the addition of membrane protein and the mixture was incubated at 25° C. for 60 min. The incubation was terminated with ice-cold 50 mM Tris-HDl (pH 7.5) and the mixture was filtered to separate membrane-bound labelled peptide from the free ligand. The incubation tube and filter were washed with ice-cold buffer. Filters were assayed for radioactivity in a Micromedic gamma counter. Nonspecific binding was defined as binding in the presence of 10 μM of unlabelled AII. Specific binding was calculated as total binding minus nonspecific binding. The receptor binding affinity of an AII antagonist compound was indicated by the concentration (IC50) of the tested AII antagonist which gives 50% displacement of the total specifically bound ^125 I-AII from the high affinity AII receptor. Binding data were analyzed by a nonlinear least-squares curve fitting program.

pressor response to AII = test: Assay C: In Vivo Intragastric Pressor Assay Response for AII Antagonists; design: species or system rat (male Sprague-Dawley); details: 3 mg/kg i.g., rat, AII 30 ng/kg bolus; for inhibition in vivo at 3 mg/kg: po
Protocol: Assay C: In Vivo Intragastric Pressor Assay Response for AII Antagonists of the Invention
Male Sprague-Dawley rats weighing 225-300 grams were anesthetized with methohexital (30 mg/kg, i.p.) and catheters were implanted into the femoral artery and vein. The catheters were tunneled subcutaneously to exit dorsally, posterior to the head and between the scapulae. The catheters were filled with heparin (1000 units/ml of saline). The rats were returned to their cage and allowed regular rat chow and water ad libitum. After full recovery from surgery (3-4 days), rats were placed in Lucite holders and the arterial line was connected to a pressure transducer. Arterial pressure was recorded on a Gould polygraph (mmHg). Angiotensin II was administered as a 30 ng/kg bolus via the venous catheter delivered in a 50 μl volume with a 0.2 ml saline flush. The pressor response in mmHg was measured by the difference from pre-injectionarterial pressure to the maximum pressure achieved. The AII injection was repeated every 10 minutes until three consecutive injections yielded responses within 4 mmHg of each other. These three responses were then averaged and represented the control response to AII. The test compound was suspended in 0.5% methylcellulose in water and was administered by gavage. The volume administered was 2 ml/kg body weight. The standard dose was 3 mg/kg. Angiotensin II bolus injections were given at 30, 45, 60, 75, 120, 150, and 180 minutes after gavage. The pressor response to AII was measured at each time point. The rats were then returned to their cage for future testing. A minimum of 3 days was allowed between tests. Percent inhibition was calculated for each time point following gavage by the following formula: [(Control Response-Response at time point)/Control Response]×100.

[2] = first of two rabbits, read-out: pA2 (first value) (converted)
[3] = second of two rabbits, read-out: pA2 (converted)

Row | Structure (SMILES) | Kb (rabbit aortic rings; [2]) [nM] | Kb (rabbit aortic rings; [3]) [nM] | IC50 [1] [nM] | angiotensin II antagonist activity (angiotensin II receptor) | Duration (of inhibition of AII pressor response) (pressor response to AII) [min] | inhibition in vivo at 3 mg/kg (pressor response to AII) [%] | residual agonist activity (angiotensin II receptor)
1 | CCCCc1nc(Cl)c(CC(=O)O)n1Cc1ccccc1[N+](=O)[O-] [2-butyl-4-chloro-1-(2-nitrobenzyl)imidazole-5-acetic acid] | – | – | – | specific competitive angiotensin II antagonist activity | – | – | –
2 | CCCCc1nc(Cl)c(CC(=O)O)n1Cc1ccccc1Cl [2-n-butyl-4-chloro-1-(2-chlorobenzyl)imidazole-5-acetic acid] | – | – | – | specific competitive angiotensin II antagonist activity | – | – | –
3 | CCCCc1nc(C(F)(F)CCC)nn1Cc1ccc(-c2ccccc2-c2nnn[nH]2)nc1 [Example 9, 5-[2-[5-[[3-(1,1-difluorobutyl)-5-butyl-1H-1,2,4-triazol-1-yl)methyl]-2-pyridinyl]phenyl]-1H-tetrazole] | 5.5 | 3.89 | 9.4 | – | 180 | 20 | –
4 | CCCCc1nc(C(F)(F)CCC)n(Cc2ccc(-c3ccccc3-c3nnn[nH]3)nc2)n1 [Example 10, 5-[2-[5-[[3-butyl-5-(1,1-difluorobutyl)-1H-1,2,4-triazol-1-yl)methyl]-2-pyridinyl]phenyl]-1H-tetrazole] | 20.9 | 31.6 | 20 | – | – | 10 | –
5 | CCCCc1nc(CC(C)(C)C)n(Cc2ccc(-c3ccccc3-c3nnn[nH]3)nc2)n1 [Example 12, 5-[2-[5-[(3-butyl-5-neopentyl-1H-1,2,4-triazol-1-yl)methyl]-2-pyridinyl]phenyl]-1H-tetrazole] | – | – | 43 | – | – | 0 | –
6 | CCCCc1nc(C(=O)N(C)C(C)(C)C)n(Cc2ccc(-c3ccccc3-c3nnn[nH]3)nc2)n1 [Example 18, 5-[2-[5-[[3-butyl-5-(N-methyl-N-tertbutylamido)-1H-1,2,4-triazol-1-yl)methyl]-2-pyridinyl]phenyl]-1H-tetrazole] | 3.72 | 16.6 | 4.1 | – | > 180 | 30 | –
7 | CNCC(=O)N[C@@H](CCCN=C(N)N)C(=O)N[C@H](C(=O)N[C@@H](Cc1ccc(O)cc1)C(=O)N[C@H](C(=O)N[C@@H](Cc1cnc[nH]1)C(=O)N1CCC[C@H]1C(=O)N[C@@H](C)C(=O)O)C(C)C)C(C)C [Saralasin] | – | – | – | – | – | – | significant residual agonist activity

More lines, in order of falling IC50 [1], values ahead:

Row | Kb (rabbit aortic rings; [2]) [nM] | Kb (rabbit aortic rings; [3]) [nM] | IC50 [1] [nM] | Structure (SMILES) | angiotensin II antagonist activity (angiotensin II receptor) | Duration (of inhibition of AII pressor response) (pressor response to AII) [min] | inhibition in vivo at 3 mg/kg (pressor response to AII) [%] | residual agonist activity (angiotensin II receptor)
8 | – | – | 520 | CCCCc1nc(-c2ccccc2Cl)n(Cc2ccc(-c3ccccc3-c3nnn[nH]3)nc2)n1 [Example 30, 5-[2-[5-[[3-butyl-5-(2-chlorophenyl)-1H-1,2,4-triazol-1-yl)methyl]-2-pyridinyl]phenyl]-1H-tetrazole] | – | – | 0 | –
9 | – | – | 25 | CCCCc1nc(-c2ccccc2Cl)nn1Cc1ccc(-c2ccccc2-c2nnn[nH]2)nc1 [Example 29, 5-[2-[5-[[3-(2-chlorophenyl)-5-butyl-1H-1,2,4-triazol-1-yl)methyl]-2-pyridinyl]phenyl]-1H-tetrazole] | – | > 180 | 25 | –
10 | 24.5 | 34.7 | 12 | CCCCc1nc(C(=O)N(C)C(C)(C)C)nn1Cc1ccc(-c2ccccc2-c2nnn[nH]2)nc1 [Example 17, 5-[2-[5-[[3-(N-methyl-N-tertbutylamido)-5-butyl-1H-1,2,4-triazol-1-yl)methyl]-2-pyridinyl]phenyl]-1H-tetrazole] | – | > 180 | 20 | –
11 | – | – | 4.4 | CCCCc1nc(CC(C)(C)C)nn1Cc1ccc(-c2ccccc2-c2nnn[nH]2)nc1 [Example 11, 5-[2-[5-[[3-neopentyl-5-butyl-1H-1,2,4-triazol-1-yl)methyl]-2-pyridinyl]phenyl]-1H-tetrazole] | – | > 180 | 20 | –
